Assays:
endogenous MAP4K4 = target: T1, endogenous MAP4K4 (Homo sapiens, UniProt O95819); assay: In-cell MAP4K4 activity, immune complex kinase assay in HEK293T cells; assay type: cell-based; conditions: HEK-293T, 1 h after treatment
T1 construct: endogenous in cells; host or cells: HEK293T
Protocol: MAP4K4 was precipitated using M2 antibody to the FLAG epitope, or antibody to endogenous MAP4K4, and protein G-Sepharose. Precipitates were washed twice in lysis buffer, twice with 500 mM LiCl, 100 mM Tris-HCl, pH 7.6, 0.1% Triton X-100, twice with kinase buffer (20 mM MOPS, pH 7.6, 2 mM EGTA, 10 mM MgCl2, 1 mM dithiothreitol, 0.1% Triton X-100, 1 mM Na3VO4), and were then mixed with 10 μg of myelin basic protein (Invitrogen) as substrate, 15 μM ATP, and 10 μCi [γ-^32P]ATP in […] of kinase buffer for 30 min at 30°C ([Yao et al., 1999]). His-MKK6 was used as the substrate for TAK1 ([Zhang et al., 2000]). Reaction mixtures were resolved by SDS-polyacrylamide gel electrophoresis, then were analyzed by western blotting and autoradiography.

vCor.4U cells as hEHT = assay: 3D human engineered heart tissue (hEHT) challenged with menadione; assay type: cell-based
Protocol: Fibrin-based hEHTs were generated between flexible silicone posts as described ([Breckwoldt et al., 2017], [Hansen et al., 2010]), with minor modifications. 1.8 mL well^-1 of 2% agarose in PBS was pipetted into 24-well plates, Teflon spacers (EHT Technologies) were placed inside each well as a casting mold, and the agarose was left to set for 15 min. The spacers were removed from each well, and a pair of polydimethylsiloxane posts was inserted from above (EHT Technologies: Young’s modulus […], length 10 mm, radius, 0.5 mm). VCor.4U cells (4 × 10^6) were resuspended in 400 μL of master mix (340 μL DMEM (Biochrom), 10% heat-inactivated fetal calf serum (GIBCO), 2 mM glutamine (Life Technnologies), 1% penicillin/streptomycin (GIBCO); 60 μL 2x DMEM (GIBCO), 20% horse serum (GIBCO), 2% penicillin/streptomycin). Bovine fibrinogen (Sigma) was added (10 μL: 200 mg mL^-1, 95 μg mL^-1 aprotinin (Sigma), 0.9% NaCl), and 100 μL aliquots were transferred to PCR tubes containing 3 μL of 100 U ml^-1 thrombin (Biopur) in 60% PBS. Cell suspensions then were immediately transferred to the agarose casting molds. After 90 min to allow solidification, 300 μL well^-1 of EHT medium was added (DMEM, 10% horse serum, 0.1% human insulin (Sigma), 0.1% aprotinin), to hydrate the gels for a further 50 min. The hEHTs were then transferred to fresh 24-well plates with 1.5 mL well^-1 of EHT medium, which was replaced every Monday, Wednesday, and Friday for 12 d. Auxotonic force measurements were performed daily by optical tracking ([Hansen et al., 2010]) and calculated on the basis of post deflection distance (δ), post length (L), post radius (R), and the elastic modulus (E), using the formula F = 3πER^4δ4L^-3 ([Schaaf et al., 2011]) and the indicated post parameters. Beating rate and force generation increased between d 5 and 10 and were stable for at least 7 d thereafter. On day 12, the hEHTs were challenged for 24 hr with menadione, in the absence or presence of DMX-5804. Medium, including DMX-5804, was replenished daily. […]

vCor.4U cells = assay: Hypoxia-reoxygenation assay (CellTox Green); assay type: cell-based, human; conditions: 3 cycles of 0.1% O2 over 8 h
Protocol: vCor.4U cells were plated at 10,000 well^-1 in Cor.4U medium using black, clear-bottom 96-well plates pre-treated with Geltrex (GIBCO). After incubation overnight at 37°C, the media was replaced with phenol red-free DMEM (GIBCO) supplemented with 2% FCS, 2 mM […], 1 mM pyruvate and 10 mM D-galactose. DMX-5804 prepared in DMSO and CellTox Green (Promega) were added and incubated for 1 hr at 37°C. A breathable seal (AeraSeal) was added to the plate before transferring to a CLARIOstar plate reader (BMG Labtech) equipped with an atmospheric control unit. Oxygen concentration ramping was executed as follows (% O2, hr), at 37°C and 5% CO2. Fluorescence measurements (λex/em 483-14/530-30) were taken using the multiple scan and direct bottom features (5 positions read), and matrix averaging of each position every 20 min. Data were blank corrected, averaged (n = 2) and subjected to exponential smoothing with a damping factor of 0.3.

Cerep Safety 44 panel = Cerep Safety 44 panel (SafetyScreen44); assay type: binding; conditions: except metallothionein 3
infarct size = assay: Myocardial infarction (ischemia-reperfusion), infarct size by TTC/Evans blue; assay type: in vivo, CD-1 female mice; conditions: 50 mg kg^−1 twice by gavage 10 h apart

T1 sequence (O95819 whole entry): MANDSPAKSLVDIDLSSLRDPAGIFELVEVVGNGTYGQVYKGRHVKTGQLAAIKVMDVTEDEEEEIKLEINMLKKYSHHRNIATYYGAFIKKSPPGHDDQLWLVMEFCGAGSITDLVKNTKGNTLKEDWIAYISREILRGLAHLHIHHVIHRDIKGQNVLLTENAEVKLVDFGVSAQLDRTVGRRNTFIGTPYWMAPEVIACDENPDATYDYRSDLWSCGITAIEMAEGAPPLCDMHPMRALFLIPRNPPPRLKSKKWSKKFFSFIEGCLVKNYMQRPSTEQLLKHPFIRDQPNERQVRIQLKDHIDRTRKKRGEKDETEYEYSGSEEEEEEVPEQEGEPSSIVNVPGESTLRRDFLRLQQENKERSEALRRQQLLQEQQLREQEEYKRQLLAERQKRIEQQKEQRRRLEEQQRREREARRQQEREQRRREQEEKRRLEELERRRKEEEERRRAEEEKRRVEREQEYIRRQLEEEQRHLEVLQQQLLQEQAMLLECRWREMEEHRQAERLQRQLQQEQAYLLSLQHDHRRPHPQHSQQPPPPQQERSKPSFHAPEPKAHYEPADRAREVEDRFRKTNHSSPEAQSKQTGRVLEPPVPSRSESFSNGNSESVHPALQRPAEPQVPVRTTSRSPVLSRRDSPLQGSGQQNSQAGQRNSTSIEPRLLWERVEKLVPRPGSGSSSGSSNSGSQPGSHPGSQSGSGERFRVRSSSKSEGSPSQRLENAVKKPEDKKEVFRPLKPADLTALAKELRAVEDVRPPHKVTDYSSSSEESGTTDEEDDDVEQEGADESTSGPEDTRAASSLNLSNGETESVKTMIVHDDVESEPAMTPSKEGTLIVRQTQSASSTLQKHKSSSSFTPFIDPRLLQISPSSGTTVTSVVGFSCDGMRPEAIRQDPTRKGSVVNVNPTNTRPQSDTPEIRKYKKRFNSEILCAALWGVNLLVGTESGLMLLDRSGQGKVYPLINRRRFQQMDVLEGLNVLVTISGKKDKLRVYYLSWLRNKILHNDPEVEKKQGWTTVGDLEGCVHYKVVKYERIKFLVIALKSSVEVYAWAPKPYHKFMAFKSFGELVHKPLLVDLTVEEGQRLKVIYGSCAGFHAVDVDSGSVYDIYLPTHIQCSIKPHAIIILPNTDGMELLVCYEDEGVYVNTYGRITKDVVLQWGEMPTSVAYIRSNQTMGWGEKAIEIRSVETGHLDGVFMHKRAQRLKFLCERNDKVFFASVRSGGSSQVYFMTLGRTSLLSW

## Oc1ncnc2c1c(-c1ccccc1)cn2-c1ccccc1 [F1386-0303, 5,7-diphenyl-7H-pyrrolo[2,3-d]pyrimidin-4-ol]
Endogenous MAP4K4
  inhibition at 10 µM: 70%

## COCCOc1ccc(-c2cn(-c3ccccc3)c3nc[nH]c(=O)c23)cc1 [DMX-5804, 5-[4-(2-methoxy-ethoxy)-phenyl]-7-phenyl-3,7-dihydro-pyrrolo[2,3-d]pyrimidin-4-one]
vCor.4U cells as hEHT; 10 μM, first 24 h
  cell death from menadione in hEHT: suppressed
vCor.4U cells as hEHT; 2D culture or hEHT
  adverse effect on cardiomyocyte viability, rhythmicity, calcium handling, mitochondrial function, force generation: no adverse effect
vCor.4U cells as hEHT; 3 or 10 μM, 60 min and 24 h, not later
  rescue of contractile function in hEHT: virtually complete
vCor.4U cells
  protection of human cardiomyocyte survival, hypoxia-reoxygenation: confirmed
Cerep Safety 44 panel
  Cerep Safety 44 panel: no off-target effect
Infarct size; post-injury treatment (1 h after reperfusion), vehicle 55.1%
  infarct size as a proportion of the area at ischemic risk: 25.6%
Infarct size; pre-injury treatment (20 min prior to ischemia), vehicle 48.5%
  infarct size as a proportion of the area at ischemic risk: 20.9%

Source: article PMC6458995, “MAP4K4 Inhibition Promotes Survival of Human Stem Cell-Derived Cardiomyocytes and Reduces Infarct Size In Vivo” (Cell Stem Cell, 2019)
